The subject of data set [1] is intra-ocular pressure (IOP). Briefly: IOP lowering after topical administration in normotensive rabbits. Particulars: commercially available drugs, topical. Type of data set: in vivo, New Zealand White albino rabbits. As to the method:
New Zealand White albino rabbits weighing 2-2.5 kg were acclimatized in our animal facility for at least a week prior to IOP measurements. Drug, saline and blank-vehicle groups (n=8-12 animals per group) were included. In most experiments, 50 μl drops were applied at 09:00 and measurements were taken 1 hour, 3, 5, and 7 hours later. Baseline IOP was individualized for each animal and time point prior to drug testing. IOP was measured by a Digilab Pneumatonometer, Model 30R. ΔIOP was calculated by subtracting the baseline IOP from IOP value measured after drug application at a corresponding time point. Maximal ΔIOP and area under the ΔIOP×hours curve (AUC) were calculated and averaged for each group. Data of IOP, AUC, blood pressure and toxicity were analyzed by the Wilcoxon-Rank test.

For data set [2] the following is noted: i.v.; cited from earlier work.
The test system of data set [3] is rats. The conditions noted are these: conscious rats; cited from earlier work.
For data set [4] the following is noted: cited from earlier work.
Data set [5] concerns rat model. The conditions noted are these: cited from earlier work.
A short description of data set [6]: threshold for psychomimetic effects in humans. Type of data set: in vivo. Particulars: worked out from THC threshold and 200 fold psychoactivity. From the text: Psychoactive cannabinoids have a variety of pharmacological effects that are evoked through interactions with the CB1 receptors predominantly expressed in the brain. The central nervous system effects that occur after in vivo exposure to HU-210 include euphoria, hypokinesia, hypothermia, anti-nociception, and catalepsy. Hypokinesia, hypothermia, anti-nociception, and catalepsy are the activities that form the basis of the “Tetrad assay” of CB1 mediated activity. […] The threshold for psychomimetic effects of oral THC in humans is in the range of 10-15 mg THC in an adult, i.e from about 0.16 to about 0.25 mg THC/kg body weight for adults of approximately 60 kg (“Cannabis and Cannabinoids, pharmacology, toxicology and therapeutic potential” edited by Grotenhermen and Russo, the Haworth Integrative Healing Press; Chapter 31 pp 345 and 351).

For data set [7], the system named is rats. Particulars: 10 μg/kg i.v., cited from earlier work.
The conditions of data set [8]: oral, adult; cited from earlier work.

Counter-ions that a name gives are not always drawn. Like-named read-outs stand apart in the source and are kept apart here.

In the case of `CC(C)(C)NC[C@H](O)COc1cccc2c1CCCC2=O` [levobunolol HCl, reference compound], the “AUC (ΔIOP×hours)” value in data set [1] is 13.3±1.5 mmHg×Hours.

In the case of `CCCCCCC(C)(C)c1cc(O)c2c(c1)OC(C)(C)[C@@H]1CC=C(CO)C[C@@H]21` [HU-210, 1,1-dimethylheptyl-(3R,4R)-7-hydroxy-Δ^6-tetrahydrocannabinol], the “lowest administered dose at which hypotensive effect is detected” value in data set [2] is 1 µg/kg. In data set [3], the “bradycardia still present after drug administration” value was at least 8 h and the “duration of hypotensive effects” value was 2 h. Besides, the “psychoactivity in animals relative to Δ^9-THC” value in data set [4] (in vivo) is “approximately 200 fold”. In addition, in data set [4] (series of animal tests), the “psychoactivity compared with HU-211” value is reported as “a thousand times more psychoactive” and the “psychoactivity compared with Δ^9-THC” value is “a hundred times more psychoactive”. For the same compound, in data set [5] (from 32±0.7), the PaCO2 after drug was 45.7±1.6 mmHg. Also, the “mean arterial blood pressure after drug” value in data set [5] (from 142±1) is recorded as 105±6 mm Hg. Besides, the “heart rate after drug” value in data set [5] (from 484±6) is listed as 232±18 beats/min. Also, in data set [5] (frontal cortex), the “change in cerebral glucose use” value is given as −19%. In addition, the “cerebral glucose use after drug” value in data set [5] (frontal cortex, from 69±1) is 55±3 μmol.100 g−1.min-1. For the same compound, the “change in cerebral glucose use” value in data set [5] (occipital cortex) is recorded as −31%. In addition, the “cerebral glucose use after drug” value in data set [5] (occipital cortex, from 60±1) is listed as 41±2 μmol.100 g−1.min−1. Besides, the “maximal tolerated dose (theoretical)” value in data set [6] is given as “less than 1.25 μg/kg body weight”. Also, in data set [7], the “reduction of mean blood pressure” value is on record as 57±5 mm Hg and the “systemic vascular resistance index” value is “without significantly affecting”. In data set [7] (from 37±1), the “cardiac index after drug” value is on record as 23±1 mL/min/100 g.

`CCCCCc1cc(O)c2c(c1)OC(C)(C)[C@@H]1CCC(C)=C[C@@H]21` [THC, Δ^9-tetrahydrocannabinol]: in data set [8], the “threshold for psychomimetic effects” value was 10 to 15 mg.

As to `CC(C)(C)NC[C@H](O)COc1nsnc1N1CCOCC1` [Timolol, reference compound], in data set [1], the “AUC (ΔIOP×hours)” value was found to be 7.3±3.0 mmHg×Hours.

Values taken from patent publication US20070060636A1, “High enantiomeric purity dexanabinol for pharmaceutical compositions” (priority 2002, published 2007).
